In patent US4177292A, “Novel 5H-benzocyclohepten-7-amines” (Roussel Uclaf, priority 1977, dated 1979):
Where a name gives a salt, the structure may show the parent alone. Read-outs that look alike come from different tables or passages of the source.

Legend:
Acute toxicity = details: mouse, in vivo, ip; mice, intraperitoneal, determined 48 hours later; read-out: DL50
Experimental: The DL50 dose which kills 50% of mice after intraperitoneal administration of the test compound was determined 48 hours later and the DL50 for the compounds is reported in Table III.

[1] = system: serotonine (5HT) uptake in synaptosomes; experiment: Inhibition of Serotonine uptake in vitro; assay type: biochemical; details: impure synaptosomes from entire brain of female rat 19 to 21 days old; 37° C., 5 minutes; 14C-5HT 10^-7 M; read-out: Inhibiting concentration IC50 of 14C-5HT uptake
Experimental: (§1) The inhibition of serotonine (5HT) uptake was measured in impure synaptosomes prepared from the entire brain of a female rat 19 to 21 days old using the technique of Kannengiesser et al [Biochemical Pharmacology, Vol. 22, (1973) p. 73].

[2] = system: uptake of 14C-5HT in synaptosomes; experiment: Inhibition of Serotonine uptake in vivo (synaptosomes prepared after intraperitoneal administration); details: Rattus norvegicus, ip, 5 mg/kg intraperitoneal, female rats 19 to 21 days old
Experimental: as §1
The tested products were intraperitoneally administered to a groups of female rats 19 to 21 days old at doses of 5 mg/kg. After 1 hour or 24 hours, the brain was removed and synaptosomes were prepared and placed in an incubator in the presence of 14 C-5HT as indicated in the previous test.

dogs = experiment: Anorexigenic activity; assay type: in vivo, dog; details: oral (gelules), 10 mg/kg, starved about 15 hours
Experimental: This activity was determined on dogs by the method of Adams et al [J. Pharm. Sci., Vol. 53 (1964), p. 1405] in which the animals received as food exclusively U.A.R. mash with a base of 800 g per day per dog. On the day of the test of a presumed anorexigenic agent, the daily individual ration of the dogs was divided into approximately equal small balls (15 to 20 g) which were offered to the dogs every 10 minutes for 8 hours. Normally the animals regularly accept the small balls successively when they are presented. […] The hourly number of refusal is determined in the animals treated with the same dose and is expressed as a percentage of the total hourly number of small balls presented per […]. At the start of the test, the animals had been starved for about 15 hours although they had drinking water available. They are deprived of water during the test. The test was effected with a group of 7 bastard dogs both male and female weighing between 11.4 and 14 kg (12.1 kg average) selected as a function of their response to a weak dose (5 mg/kg) of fenfluramine.

[3] = 1 hour, read-out: % inhibition of 14C-5HT uptake after 1 Hour
[4] = 24 hours, read-out: % inhibition of 14C-5HT uptake after 24 Hours

CN(C)[C@@H]1CCc2ccccc2[C@H](Oc2ccc(C(F)(F)F)cc2)C1.Cl (relative stereo) [Example 3, cis N,N-dimethyl-5-[4-trifluoromethylphenoxy]-6,7,8,9-tetrahydro-5H-benzocycloheptene-7-amine hydrochloride]
LD50 at 48 h (Acute toxicity): 150 mg/kg
IC50 [1]: 0.76 µM

COc1ccccc1O[C@@H]1C[C@H](N(C)C)CCc2ccccc21 (relative stereo) [Example 10, cis N,N-dimethyl-5-[2-methoxyphenoxy]-6,7,8,9-tetrahydro-5H-benzocyclohepten-7-amine hydrochloride]
IC50 [1]: 1.3 µM

CN(C)[C@H]1CCc2ccc(Cl)cc2[C@H](Oc2ccc([N+](=O)[O-])cc2)C1.Cl (relative stereo) [Example 18, trans N,N-dimethyl-3-chloro-5-[4-nitrophenoxy]-6,7,8,9-tetrahydro-5H-benzocyclohepten-7-amine hydrochloride]
LD50 at 48 h (Acute toxicity): 100 mg/kg
IC50 [1]: 1.5 µM

CN[C@@H]1CCc2ccccc2[C@H](Oc2ccc(C(F)(F)F)cc2)C1.Cl (relative stereo) [Example 6, cis N-methyl-5-[4-trifluoromethylphenoxy]-6,7,8,9-tetrahydro-5H-benzocycloheptene-7-amine hydrochloride]
LD50 at 48 h (Acute toxicity): 400 mg/kg
IC50 [1]: 1.9 µM
inhibition at 5 mg/kg [2, 3]: 41 ± 3%
inhibition at 5 mg/kg [2, 4]: 61 ± 3%

CN(C)[C@@H]1CCc2ccccc2[C@H](Oc2ccccc2[N+](=O)[O-])C1.Cl (relative stereo) [Example 8, cis N,N-dimethyl-5-[2-nitrophenoxy]-6,7,8,9-tetrahydro-5H-benzocyclohepten-7-amine hydrochloride]
LD50 at 48 h (Acute toxicity): 150 mg/kg
IC50 [1]: 4 µM

CN(C)[C@H]1CCc2ccccc2[C@@H](Oc2ccc([N+](=O)[O-])c(C(F)(F)F)c2)C1 (relative stereo) [Example 17, cis-N,N-dimethyl-5-[4-nitro-3-trifluoromethylphenoxy]-6,7,8,9,-tetrahydro-5H-benzocyclohepten-7-amine]
LD50 at 48 h (Acute toxicity): > 400 mg/kg
IC50 [1]: 0.95 µM

CN(C)[C@H]1CCc2ccccc2[C@@H](Oc2ccc([N+](=O)[O-])cc2)C1 (relative stereo) [Example 1, fumarate of cis N,N-dimethyl-5-[4-nitrophenyloxy]-6,7,8,9-tetrahydro-5H-benzocycloheptene-7-amine]
LD50 at 48 h (Acute toxicity): 100 mg/kg
IC50 [1]: 0.34 µM
oral anorexigenic activity (refusal of food balls) (dogs): important oral anorexigenic activity
inhibition at 5 mg/kg [2, 3]: 58 ± 4%
inhibition at 5 mg/kg [2, 4]: 67 ± 2%

CN(C)[C@H]1CCc2ccccc2[C@H](Oc2ccc([N+](=O)[O-])cc2)C1.Cl (relative stereo) [Example 4, trans N,N-dimethyl-5-[4-nitrophenoxy]-6,7,8,9-tetrahydro-5H-benzocycloheptene-7-amine hydrochloride]
LD50 at 48 h (Acute toxicity): 100 mg/kg
IC50 [1]: 0.083 µM
inhibition at 5 mg/kg [2, 3]: 61 ± 2%
inhibition at 5 mg/kg [2, 4]: 39 ± 4%

CN(C)[C@@H]1CCc2ccccc2[C@H](Oc2ccc(N)cc2)C1.Cl.Cl (relative stereo) [Example 2, cis N,N-dimethyl-5-[4-aminophenoxy]-6,7,8,9-tetrahydro-5H-benzocycloheptene-7-amine dihydrochloride]
LD50 at 48 h (Acute toxicity): 200 mg/kg
IC50 [1]: 14 µM

COc1ccc(O[C@@H]2C[C@H](N(C)C)CCc3ccccc32)cc1 (relative stereo) [Example 11, cis N,N-dimethyl-5-[4-methoxyphenoxy]-6,7,8,9-tetrahydro-5H-benzocyclohepten-7-amine hydrochloride]
IC50 [1]: 1.3 µM

CN(C)[C@@H]1CCc2ccccc2[C@H](Oc2ccccc2C(F)(F)F)C1.Cl (relative stereo) [Example 5, cis N,N-dimethyl-5-[2-trifluoromethylphenoxy]-6,7,8,9-tetrahydro-5H-benzocycloheptene-7-amine hydrochloride]
LD50 at 48 h (Acute toxicity): 200 mg/kg
IC50 [1]: 2.3 µM

CN(C)[C@@H]1CCc2ccccc2[C@H](Oc2ccc(Br)cc2)C1.Cl (relative stereo) [Example 7, cis N,N-dimethyl-5-[4-bromophenoxy]-6,7,8,9-tetrahydro-5H-benzocyclohepten-7-amine hydrochloride]
LD50 at 48 h (Acute toxicity): 150 mg/kg
IC50 [1]: 0.32 µM
inhibition at 5 mg/kg [2, 3]: 40 ± 3%
inhibition at 5 mg/kg [2, 4]: 65 ± 2%

CN(C)[C@H]1CCc2ccc(Cl)cc2[C@@H](Oc2ccc([N+](=O)[O-])cc2)C1 (relative stereo) [Example 19, cis N,N-dimethyl-3-chloro-5-[4-nitrophenoxy]-6,7,8,9-tetrahydro-5H-benzocyclohepten-7-amino hydrochloride]
LD50 at 48 h (Acute toxicity): > 200 mg/kg
IC50 [1]: 7.1 µM
